Results published in patent publication US11981658B2, “Substituted aminopyridine compounds as EGFR inhibitors” (YUHAN CORPORATION, priority 2021, dated 2024).
Where two headings read alike, the source gives them in different places.

Experiments:
EGFR Del19/C797S = EGFR Del19/C797S (Homo sapiens, UniProt P00533, C797S/DEL746-750); test: Biochemical EGFR kinase inhibition assay (Lance Ultra TR-FRET), double mutant del19/C797S
How it was run: (§1)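 In this biochemical assay, phosphorylation after a one-hour room-temperature reaction was detected with europium-labelled anti-phosphopeptide antibody at 2 nM final concentration.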

EGFR L858R/C797S = EGFR L858R/C797S (Homo sapiens, UniProt P00533, C797S/L858R); test: Biochemical EGFR kinase inhibition assay (Lance Ultra TR-FRET), double mutant L858R/C797S
Sequence of EGFR L858R/C797S (P00533 25-1210 C797S/L858R): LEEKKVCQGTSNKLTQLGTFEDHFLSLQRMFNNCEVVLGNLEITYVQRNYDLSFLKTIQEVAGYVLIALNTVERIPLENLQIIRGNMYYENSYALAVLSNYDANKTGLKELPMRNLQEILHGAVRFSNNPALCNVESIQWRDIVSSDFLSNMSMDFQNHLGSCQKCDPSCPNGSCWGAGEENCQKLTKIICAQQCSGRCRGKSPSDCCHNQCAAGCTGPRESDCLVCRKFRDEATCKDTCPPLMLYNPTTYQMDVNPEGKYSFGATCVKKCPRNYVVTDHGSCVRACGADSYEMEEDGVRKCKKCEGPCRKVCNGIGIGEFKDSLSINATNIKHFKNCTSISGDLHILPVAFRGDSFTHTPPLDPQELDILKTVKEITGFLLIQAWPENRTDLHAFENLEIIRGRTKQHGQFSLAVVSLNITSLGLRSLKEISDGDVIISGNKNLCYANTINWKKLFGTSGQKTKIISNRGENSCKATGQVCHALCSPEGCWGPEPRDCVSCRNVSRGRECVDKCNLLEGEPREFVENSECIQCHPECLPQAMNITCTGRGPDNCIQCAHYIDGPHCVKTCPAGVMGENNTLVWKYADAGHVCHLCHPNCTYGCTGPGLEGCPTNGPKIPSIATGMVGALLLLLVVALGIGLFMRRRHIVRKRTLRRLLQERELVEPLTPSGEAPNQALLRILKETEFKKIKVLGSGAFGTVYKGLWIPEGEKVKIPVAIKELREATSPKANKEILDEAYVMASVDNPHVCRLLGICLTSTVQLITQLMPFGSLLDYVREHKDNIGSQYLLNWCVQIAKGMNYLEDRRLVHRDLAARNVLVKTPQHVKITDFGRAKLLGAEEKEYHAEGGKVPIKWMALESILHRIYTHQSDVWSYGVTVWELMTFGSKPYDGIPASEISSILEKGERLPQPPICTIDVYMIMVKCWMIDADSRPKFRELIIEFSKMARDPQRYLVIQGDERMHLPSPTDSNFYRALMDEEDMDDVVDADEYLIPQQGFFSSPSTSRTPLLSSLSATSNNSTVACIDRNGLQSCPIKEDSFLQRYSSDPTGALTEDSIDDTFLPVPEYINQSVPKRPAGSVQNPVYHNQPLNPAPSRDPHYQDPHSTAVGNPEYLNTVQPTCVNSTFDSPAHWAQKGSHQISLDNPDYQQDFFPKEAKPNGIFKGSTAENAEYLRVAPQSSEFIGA
How it was run: as §1

EGFR wildtype (WT) = EGFR wildtype (WT) (Homo sapiens, UniProt P00533); test: Biochemical EGFR kinase inhibition assay (Lance Ultra TR-FRET), wildtype
Sequence of EGFR wildtype (WT) (P00533 25-1210): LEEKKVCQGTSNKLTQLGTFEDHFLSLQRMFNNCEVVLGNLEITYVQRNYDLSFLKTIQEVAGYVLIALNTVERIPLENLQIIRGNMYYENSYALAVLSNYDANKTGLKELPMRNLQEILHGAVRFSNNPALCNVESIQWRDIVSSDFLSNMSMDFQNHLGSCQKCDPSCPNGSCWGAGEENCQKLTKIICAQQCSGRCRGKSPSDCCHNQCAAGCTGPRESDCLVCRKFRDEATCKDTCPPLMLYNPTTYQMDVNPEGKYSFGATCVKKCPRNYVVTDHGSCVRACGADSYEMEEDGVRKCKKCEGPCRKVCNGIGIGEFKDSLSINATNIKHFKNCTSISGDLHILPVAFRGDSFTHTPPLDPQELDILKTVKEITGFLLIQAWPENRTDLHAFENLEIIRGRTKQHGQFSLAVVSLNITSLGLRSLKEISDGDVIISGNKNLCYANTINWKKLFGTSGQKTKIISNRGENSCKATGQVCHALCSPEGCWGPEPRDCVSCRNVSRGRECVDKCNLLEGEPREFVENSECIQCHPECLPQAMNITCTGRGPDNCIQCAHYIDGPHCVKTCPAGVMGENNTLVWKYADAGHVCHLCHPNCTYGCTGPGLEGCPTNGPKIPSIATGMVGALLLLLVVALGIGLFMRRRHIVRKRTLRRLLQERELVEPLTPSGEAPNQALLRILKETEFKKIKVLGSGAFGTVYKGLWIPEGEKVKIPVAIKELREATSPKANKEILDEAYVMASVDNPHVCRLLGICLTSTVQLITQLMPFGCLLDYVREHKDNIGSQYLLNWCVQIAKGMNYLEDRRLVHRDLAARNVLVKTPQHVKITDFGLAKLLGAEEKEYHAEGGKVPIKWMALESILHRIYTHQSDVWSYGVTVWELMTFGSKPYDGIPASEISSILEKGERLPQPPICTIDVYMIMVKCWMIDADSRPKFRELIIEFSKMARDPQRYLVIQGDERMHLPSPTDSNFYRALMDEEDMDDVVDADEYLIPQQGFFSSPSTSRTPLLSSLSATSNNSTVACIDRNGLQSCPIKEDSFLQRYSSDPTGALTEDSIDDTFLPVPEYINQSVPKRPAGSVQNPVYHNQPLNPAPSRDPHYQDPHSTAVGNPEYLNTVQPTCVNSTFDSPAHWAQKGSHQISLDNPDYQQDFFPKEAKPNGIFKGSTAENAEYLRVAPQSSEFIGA
How it was run: as §1

EGFR L858R/T790M/C797S = EGFR L858R/T790M/C797S (Homo sapiens, UniProt P00533, C797S/L858R/T790M); test: Biochemical EGFR kinase inhibition assay (Lance Ultra TR-FRET), triple mutant L858R/T790M/C797S
Sequence of EGFR L858R/T790M/C797S (P00533 25-1210 T790M/C797S/L858R): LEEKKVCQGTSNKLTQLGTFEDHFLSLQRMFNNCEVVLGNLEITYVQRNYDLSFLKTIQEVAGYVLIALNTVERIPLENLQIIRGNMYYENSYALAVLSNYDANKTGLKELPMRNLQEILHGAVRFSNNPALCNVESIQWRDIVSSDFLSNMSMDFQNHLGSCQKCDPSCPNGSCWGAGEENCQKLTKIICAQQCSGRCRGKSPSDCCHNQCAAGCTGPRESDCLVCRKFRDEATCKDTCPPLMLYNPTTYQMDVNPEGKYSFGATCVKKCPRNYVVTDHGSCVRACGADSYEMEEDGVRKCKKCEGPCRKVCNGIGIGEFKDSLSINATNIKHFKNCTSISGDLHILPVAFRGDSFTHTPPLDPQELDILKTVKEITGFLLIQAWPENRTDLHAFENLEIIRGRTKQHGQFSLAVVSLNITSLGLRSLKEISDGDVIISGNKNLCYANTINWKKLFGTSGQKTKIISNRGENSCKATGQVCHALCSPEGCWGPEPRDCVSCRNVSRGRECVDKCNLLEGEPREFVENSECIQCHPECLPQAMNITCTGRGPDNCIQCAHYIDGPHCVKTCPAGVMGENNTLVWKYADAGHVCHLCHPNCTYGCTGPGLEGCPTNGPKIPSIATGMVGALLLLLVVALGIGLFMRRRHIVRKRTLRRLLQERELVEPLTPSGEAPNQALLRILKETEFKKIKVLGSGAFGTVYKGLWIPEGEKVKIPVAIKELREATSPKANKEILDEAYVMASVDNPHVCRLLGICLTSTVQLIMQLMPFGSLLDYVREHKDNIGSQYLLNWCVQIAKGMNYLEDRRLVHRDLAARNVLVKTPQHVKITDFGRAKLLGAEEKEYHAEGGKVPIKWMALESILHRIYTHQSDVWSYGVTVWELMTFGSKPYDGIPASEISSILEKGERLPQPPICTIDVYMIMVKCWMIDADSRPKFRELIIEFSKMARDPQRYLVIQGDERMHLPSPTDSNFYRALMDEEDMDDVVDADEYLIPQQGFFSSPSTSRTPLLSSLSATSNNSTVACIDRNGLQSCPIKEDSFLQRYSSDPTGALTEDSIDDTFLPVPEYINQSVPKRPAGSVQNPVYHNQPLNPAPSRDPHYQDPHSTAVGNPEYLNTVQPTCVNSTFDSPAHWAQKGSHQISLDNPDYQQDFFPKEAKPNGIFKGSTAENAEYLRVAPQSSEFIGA
How it was run: as §1

EGFR Del19/T790M/C797S = EGFR Del19/T790M/C797S (Homo sapiens, UniProt P00533, C797S/DEL746-750/T790M); test: Biochemical EGFR kinase inhibition assay (Lance Ultra TR-FRET), triple mutant del19/T790M/C797S
How it was run: as §1

[1] = IC50 Del19/C797S (nM), 100 μM ATP
[2] = IC50 L858R/C797S (nM), 100 μM ATP
[3] = IC50 L858R/T790M/C797S (nM), 100 μM ATP
[4] = IC50 Del19/T790M/C797S (nM), 100 μM ATP

Sequence of EGFR Del19/C797S (P00533 with tags, fused parts or gaps DEL746-750/C797S): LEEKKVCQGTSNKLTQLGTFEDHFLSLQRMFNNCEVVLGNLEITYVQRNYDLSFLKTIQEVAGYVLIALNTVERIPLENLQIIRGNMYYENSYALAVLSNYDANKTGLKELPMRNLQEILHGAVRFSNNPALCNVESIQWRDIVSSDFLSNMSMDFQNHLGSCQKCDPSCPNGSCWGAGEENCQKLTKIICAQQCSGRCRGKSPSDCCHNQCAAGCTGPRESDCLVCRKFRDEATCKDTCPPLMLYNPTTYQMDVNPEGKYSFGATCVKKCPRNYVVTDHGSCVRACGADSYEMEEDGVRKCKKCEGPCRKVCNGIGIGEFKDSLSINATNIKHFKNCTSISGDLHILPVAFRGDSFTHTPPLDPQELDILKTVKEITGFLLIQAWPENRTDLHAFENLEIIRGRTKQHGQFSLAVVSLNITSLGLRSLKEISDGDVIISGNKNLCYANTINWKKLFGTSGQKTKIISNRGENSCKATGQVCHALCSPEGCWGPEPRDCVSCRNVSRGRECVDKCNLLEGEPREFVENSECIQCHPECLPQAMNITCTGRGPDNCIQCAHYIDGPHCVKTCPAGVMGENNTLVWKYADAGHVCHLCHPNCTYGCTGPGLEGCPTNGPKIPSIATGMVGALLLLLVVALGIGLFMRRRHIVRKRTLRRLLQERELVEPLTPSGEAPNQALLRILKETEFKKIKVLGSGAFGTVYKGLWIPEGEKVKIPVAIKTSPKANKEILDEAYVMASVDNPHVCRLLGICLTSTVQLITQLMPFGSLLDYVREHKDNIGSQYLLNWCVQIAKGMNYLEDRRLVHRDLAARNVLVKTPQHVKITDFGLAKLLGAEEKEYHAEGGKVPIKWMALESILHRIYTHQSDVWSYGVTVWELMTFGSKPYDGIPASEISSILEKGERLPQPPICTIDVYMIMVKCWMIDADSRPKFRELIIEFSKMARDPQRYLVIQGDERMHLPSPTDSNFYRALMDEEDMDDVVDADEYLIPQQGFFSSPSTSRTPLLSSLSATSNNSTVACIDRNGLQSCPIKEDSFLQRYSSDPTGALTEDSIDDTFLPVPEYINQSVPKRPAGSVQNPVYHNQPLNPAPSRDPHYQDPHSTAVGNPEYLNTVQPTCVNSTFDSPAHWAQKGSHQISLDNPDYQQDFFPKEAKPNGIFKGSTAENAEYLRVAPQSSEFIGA

`CC(C)Nc1cc(Nc2ccnc(-c3cnn(S(=O)(=O)C4CC4)c3)n2)ncc1C#CCCCCNC(=O)N1CCOCC1` [Example 209, N-(6-(6-((2-(1-(Cyclopropylsulfonyl)-1H-pyrazol-4-yl)pyrimidin-4-yl)amino)-4-(isopropylamino)pyridin-3-yl)hex-5-yn-1-yl)morpholine-4-carboxamide] showed an IC50 (EGFR Del19/C797S; [1]) of 120 nM, an IC50 (EGFR L858R/C797S; [2]) of 112 nM and an IC50 (EGFR wildtype (WT); IC50 WT (nM), 100 μM ATP) of over 10000 nM. For the same compound, the IC50 (EGFR L858R/T790M/C797S; [3]) was 4.4 nM and the IC50 (EGFR Del19/T790M/C797S; [4]) was 2.6 nM.

`Cc1nc(C#Cc2cnc(Nc3ccnc(-c4cnn(S(=O)(=O)C5CC5)c4)n3)cc2N2CCC(O)CC2)cs1` [Example 211, 1-(2-((2-(1-(Cyclopropylsulfonyl)-1H-pyrazol-4-yl)pyrimidin-4-yl)amino)-5-((2-methylthiazol-4-yl)ethynyl)pyridin-4-yl)piperidin-4-ol] gave an IC50 (EGFR Del19/C797S; [1]) of 32.3 nM, an IC50 (EGFR L858R/C797S; [2]) of 66.2 nM and an IC50 (EGFR wildtype (WT); IC50 WT (nM), 100 μM ATP) of over 10000 nM. For the same compound, the IC50 (EGFR L858R/T790M/C797S; [3]) was 6.9 nM and the IC50 (EGFR Del19/T790M/C797S; [4]) was 1.4 nM.

In the case of `O=S(=O)(C1CC1)n1cc(-c2nccc(Nc3cc(N4CCC(O)CC4)c(C#Cc4csc(CF)n4)cn3)n2)cn1` [Example 212, 1-(2-((2-(1-(Cyclopropylsulfonyl)-1H-pyrazol-4-yl)pyrimidin-4-yl)amino)-5-((2-(fluoromethyl)thiazol-4-yl)ethynyl)pyridin-4-yl)piperidin-4-ol], the IC50 (EGFR Del19/C797S; [1]) was 44.8 nM, the IC50 (EGFR L858R/C797S; [2]) was 97.6 nM and the IC50 (EGFR wildtype (WT); IC50 WT (nM), 100 μM ATP) was over 10000 nM. It also gave an IC50 (EGFR L858R/T790M/C797S; [3]) of 8.9 nM and an IC50 (EGFR Del19/T790M/C797S; [4]) of 1.5 nM.

With `Cn1cnc(C#Cc2cnc(Nc3ccnc(-c4cnn(S(=O)(=O)C5CC5)c4)n3)cc2N2CCC(O)CC2)c1` [Example 213, 1-(2-((2-(1-(Cyclopropylsulfonyl)-1H-pyrazol-4-yl)pyrimidin-4-yl)amino)-5-((1-methyl-1H-imidazol-4-yl)ethynyl)pyridin-4-yl)piperidin-4-ol] the IC50 (EGFR Del19/C797S; [1]) was 8.8 nM, the IC50 (EGFR L858R/C797S; [2]) was 37.5 nM and the IC50 (EGFR wildtype (WT); IC50 WT (nM), 100 μM ATP) was over 10000 nM. It also gave an IC50 (EGFR L858R/T790M/C797S; [3]) of 1.4 nM and an IC50 (EGFR Del19/T790M/C797S; [4]) of 0.7 nM.

For `Cn1cnc(C#Cc2cnc(Nc3ccnc(-c4cnn(S(=O)(=O)C5CC5)c4)n3)cc2N2CCC(O)CC2)n1` [Example 214, 1-(2-((2-(1-(Cyclopropylsulfonyl)-1H-pyrazol-4-yl)pyrimidin-4-yl)amino)-5-((1-methyl-1H-1,2,4-triazol-3-yl)ethynyl)pyridin-4-yl)piperidin-4-ol], the IC50 (EGFR Del19/C797S; [1]) was 109 nM, the IC50 (EGFR L858R/C797S; [2]) was 274 nM and the IC50 (EGFR wildtype (WT); IC50 WT (nM), 100 μM ATP) was over 10000 nM. For the same compound, the IC50 (EGFR L858R/T790M/C797S; [3]) was 4 nM and the IC50 (EGFR Del19/T790M/C797S; [4]) was 1.4 nM.

`O=S(=O)(C1CC1)n1cc(-c2nccc(Nc3cc(N4CCC(O)CC4)c(C#Cc4ccc(N5CCOCC5)nc4)cn3)n2)cn1` [Example 215, 1-(2-((2-(1-(Cyclopropylsulfonyl)-1H-pyrazol-4-yl)pyrimidin-4-yl)amino)-5-((6-morpholinopyridin-3-yl)ethynyl)pyridin-4-yl)piperidin-4-ol] was tested, and the IC50 (EGFR Del19/C797S; [1]) was 46.9 nM, the IC50 (EGFR L858R/C797S; [2]) was 213 nM and the IC50 (EGFR wildtype (WT); IC50 WT (nM), 100 μM ATP) was over 10000 nM. It also gave an IC50 (EGFR L858R/T790M/C797S; [3]) of 11.4 nM and an IC50 (EGFR Del19/T790M/C797S; [4]) of 2.9 nM.

Work on `Cn1cnc(C#Cc2cnc(Nc3ccnc(-c4cnn(S(=O)(=O)C5CC5)c4)n3)cc2N[C@H]2CC[C@@H](O)CC2)c1` [Example 216, (1s,4s)-4-((2-((2-(1-(Cyclopropylsulfonyl)-1H-pyrazol-4-yl)pyrimidin-4-yl)amino)-5-((1-methyl-1H-imidazol-4-yl)ethynyl)pyridin-4-yl)amino)cyclohexan-1-ol] yielded an IC50 (EGFR Del19/C797S; read-out: IC50 Del19/C797S (nM), 100 μM ATP) of 4.9 nM, an IC50 (EGFR L858R/C797S; read-out: IC50 L858R/C797S (nM), 100 μM ATP) of 28 nM and an IC50 (EGFR wildtype (WT); read-out: IC50 WT (nM), 100 μM ATP) of over 10000 nM. For the same compound, the IC50 (EGFR L858R/T790M/C797S; read-out: IC50 L858R/T790M/C797S (nM), 100 μM ATP) was 0.8 nM and the IC50 (EGFR Del19/T790M/C797S; read-out: IC50 Del19/T790M/C797S (nM), 100 μM ATP) was 0.7 nM.

`O=S(=O)(C1CC1)n1cc(-c2nccc(Nc3cc(N[C@H]4CC[C@@H](O)CC4)c(C#Cc4ccsc4)cn3)n2)cn1` [Example 217, (1s,4s)-4-((2-((2-(1-(Cyclopropylsulfonyl)-1H-pyrazol-4-yl)pyrimidin-4-yl)amino)-5-(thiophen-3-ylethynyl)pyridin-4-yl)amino)cyclohexan-1-ol] showed an IC50 (EGFR Del19/C797S; [1]) of 28.3 nM, an IC50 (EGFR L858R/C797S; [2]) of 238 nM and an IC50 (EGFR wildtype (WT); IC50 WT (nM), 100 μM ATP) of over 10000 nM. For the same compound, the IC50 (EGFR L858R/T790M/C797S; [3]) was 14.5 nM and the IC50 (EGFR Del19/T790M/C797S; [4]) was 2.6 nM.
